The target of the experiment is SARS‐CoV‐2 nsp10–nsp16 complex (Severe acute respiratory syndrome coronavirus 2, UniProt P0DTD1). Briefly: nsp10–nsp16 radiometric MTase assay, IC50 determination. In kind it is biochemical.

With `Nc1ncnc2c1ncn2[C@@H]1O[C@H](CSCC[C@H](N)C(=O)O)[C@@H](O)[C@H]1O` [SAH, S‐adenosylhomocysteine], the IC50 came to 2200 ± 200 nM. The compound further yielded a Hill slope (radiometric assay, mean ± SD, N = 3) of 0.6 ± 0.1.

By IC50 is commonly meant the concentration that gives 50% inhibition. Low values mean higher potency, high ones lower potency. Broadly, the Hill slope is the slope factor of the fitted curve.

The record behind these values is article PMC9375521 (Protein Science : A Publication of the Protein Society, 2022).
